Entries after “also recorded” stand apart in the source; their conditions may differ.
How the values were obtained:
ammonia channel (AmtB) [1] = target: T1, ammonia channel (AmtB) (Escherichia coli, UniProt P69681); assay: Phospholipid binding to AmtB resolved by native MS / IM-MS in C8E4; design: species or system E. coli; conditions: for # Bound (number of resolvable phospholipids bound): AmtB in C8E4, optimised P:L:D ratio of Table 2; for extent of phospholipid binding to AmtB: in words, co-transport into the gas phase
T1 sequence (P69681 26-428): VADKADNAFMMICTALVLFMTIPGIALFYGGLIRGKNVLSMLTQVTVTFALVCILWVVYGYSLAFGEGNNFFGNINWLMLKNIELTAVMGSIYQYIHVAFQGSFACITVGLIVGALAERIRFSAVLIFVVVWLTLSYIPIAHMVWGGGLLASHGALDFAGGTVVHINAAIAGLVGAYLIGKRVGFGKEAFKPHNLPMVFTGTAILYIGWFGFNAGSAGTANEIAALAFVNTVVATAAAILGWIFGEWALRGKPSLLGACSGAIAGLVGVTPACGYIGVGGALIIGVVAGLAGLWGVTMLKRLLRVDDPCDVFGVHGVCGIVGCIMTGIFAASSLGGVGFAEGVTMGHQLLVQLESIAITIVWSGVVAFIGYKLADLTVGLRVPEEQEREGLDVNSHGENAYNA

ammonia channel (AmtB) [2] = target: T1, ammonia channel (AmtB); assay: Gas-phase (collision-induced) unfolding IM-MS: stabilisation of AmtB by bound phospholipid; assay type: binding, E. coli; conditions: +15 charge state, versus apo form
Method: (§1) IM-MS was used to resolve individual phospholipid-bound states of membrane proteins, in folded conformations, devoid of the complication of the lipid bilayer. Bound phospholipids were then ranked based on their ability to prevent gas-phase unfolding. Combining the IM-MS data for the three protein complexes with molecular dynamic (MD) simulations, probable lipid binding sites were then identified.
Ion mobility measurements were performed on a modified Synapt G1 HDMS instrument with the travelling-wave on mobility cell replaced by an 18-cm drift cell with radial RF on confinement and a linear voltage gradient to direct ions along the axis of transmission to the time-of-flight (TOF) mass analyser. Ion mobility mass spectrometer was typically set to a source pressure of 5-7 mBar, capillary voltage of 1.4-1.7 kV, capillary nanoflow of 0.03-0.2 mBar and argon as collision gas with flow rate set to 5-8 mL/min (˜6.6-6.7 e-2 mBar). Collision voltage ranged from 2-240 V with measurements taken at 5 V and 2 V steps for monitoring gas-phase unfolding of membrane and soluble protein complexes, respectively. The sample and extraction cone and trap bias voltages, quadrupole profile, and collision gas pressure were optimized for maximal ion intensity of the target membrane protein complex. Helium was the drift cell gas and set to a pressure of ˜1.6-1.8 Torr (40 ml/min flow rate). Pusher time, pulse width and TDC inhibit were set to 180, 7 and 7 μs, respectively. The ion guide/source (300 ms^−1, 10 V), trap (300 ms^−1, 0.2 V) and transfer (100 ms^−1, 10 V) travelling wave velocities and wave heights were kept constant. The mobility release time was set at 200 μs with a trap voltage of 30 V and extract voltage of 10 V. Pressure and temperature of the ion mobility cell was measured directly. Ion drift time (td) was determined as described in Bush et al (Analytical Chemistry, 2010, 82, 9557-.9565).
Ion mobility data were imported using a custom script provided by Waters at an m/z resolution of four in drift data and one in mass spectra for fitting. Mass spectra were smoothed and theoretical mass spectra were fitted as outlined above. A standardized integration window was employed for extracting arrival time distributions (ATD) using a resolution (R=[…]) of 1000 and a height cut-off of 25% for the modelled Gaussian to the respective m/z peak. […]
To extract quantitative values for the effects of phospholipid binding on unfolding pathways, an established equilibrium unfolding model, used extensively in solution studies involving chemical denaturation, was applied. […] By comparing the apo form of the protein with lipid bound states, the average stabilisation was calculated by fitting the unfolding pathway for the most abundant charge state, identifying four distinct intermediate states. […]

[3] = target: T2, mechanosensitive channel of large conductance (MscL) (Mycobacterium tuberculosis, UniProt P9WJN5); assay: Phospholipid binding to MscL resolved by native MS / IM-MS in C8E4; conditions: optimised P:L:D ratio of Table 2
T2 sequence (P9WJN5 1-151): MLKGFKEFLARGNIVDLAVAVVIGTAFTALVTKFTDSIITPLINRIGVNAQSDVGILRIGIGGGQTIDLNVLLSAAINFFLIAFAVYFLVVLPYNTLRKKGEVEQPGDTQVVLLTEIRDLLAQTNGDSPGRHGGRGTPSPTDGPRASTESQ

Aquaporin Z (AQPZ) [4] = target: T3, Aquaporin Z (AQPZ) (Escherichia coli, UniProt P60844); assay: Gas-phase (collision-induced) unfolding IM-MS: stabilisation of AQPZ by bound phospholipid; assay type: binding, E. coli; conditions: +13 charge state, versus apo form
T3 sequence (P60844 whole entry): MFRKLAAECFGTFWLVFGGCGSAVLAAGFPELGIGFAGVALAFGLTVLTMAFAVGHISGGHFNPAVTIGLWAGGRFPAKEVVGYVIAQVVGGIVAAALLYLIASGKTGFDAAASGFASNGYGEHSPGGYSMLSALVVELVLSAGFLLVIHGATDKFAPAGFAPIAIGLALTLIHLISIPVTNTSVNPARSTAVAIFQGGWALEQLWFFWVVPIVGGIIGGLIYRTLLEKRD
Method: as §1
Ion mobility measurements were performed on a modified Synapt G1 HDMS instrument with the travelling-wave on mobility cell replaced by an 18-cm drift cell with radial RF on confinement and a linear voltage gradient to direct ions along the axis of transmission to the time-of-flight (TOF) mass analyser. […] The mobility release time was set at 200 μs with a trap voltage of 30 V and extract voltage of 10 V. Pressure and temperature of the ion mobility cell was measured directly. Ion drift time (td) was determined as described in Bush et al (Analytical Chemistry, 2010, 82, 9557-.9565). […]
To extract quantitative values for the effects of phospholipid binding on unfolding pathways, an established equilibrium unfolding model, used extensively in solution studies involving chemical denaturation, was applied. […]

Aquaporin Z (AQPZ) [5] = target: T3, Aquaporin Z (AQPZ); assay: Phospholipid binding to AQPZ resolved by native MS / IM-MS in C8E4; design: species or system E. coli; conditions: AQPZ in C8E4; optimised P:L:D ratio of Table 2

Row | Molecule | # Bound (number of resolvable phospholipids bound) (ammonia channel (AmtB) [1]) | extent of phospholipid binding to AmtB (ammonia channel (AmtB) [1]) | average stabilisation of AmtB by bound phospholipid (resistance to gas-phase unfolding) (ammonia channel (AmtB) [2]) | # Bound (number of resolvable phospholipids bound) [3] | average stabilisation of AQPZ by bound phospholipid (resistance to gas-phase unfolding) (Aquaporin Z (AQPZ) [4]) | # Bound (number of resolvable phospholipids bound) (Aquaporin Z (AQPZ) [5]) | bound phospholipid molecules (ammonia channel (AmtB) [1]; AmtB, moderate collision activation 175 V (FIG. 7a))
1 | Cardiolipin (E. coli) [CDL] | 1 | only low populations | significant stabilisation | 1 | substantial increase in protein stability compared to all other phospholipids; also recorded: stabilises AQPZ significantly | 1 | 
2 | L-α-phosphatidylglycerol (E. coli) [PG] | 4 |  | dramatic increase in stabilisation; also recorded: significant stabilisation | 2 |  | 3 | one to four
3 | CCCCCCCC/C=C\CCCCCCCC(=O)O[C@H](COC(=O)CCCCCCCCCCCCCCC)COP(=O)(O)OC[C@H](N)C(=O)O [PS, 1-palmitoyl-2-oleoyl-sn-glycero-3-phospho-L-serine (16:0-18:1)] | 3 | extensive | not correlated with significant stabilisation | 2 |  | 3 | 
4 | CCCCCCCC/C=C\CCCCCCCC(=O)O[C@H](COC(=O)CCCCCCCCCCCCCCC)COP(=O)(O)O [PA, 1-palrnitoyl-2-oleoyl-sn-glycero-3-phosphate (16:0-18:1)] | 3 | extensive | not correlated with significant stabilisation | 1 |  | 2 | 

Source: patent publication US20150346214A1, “DETECTION OF MEMBRANE PROTEINS” (priority 2012, published 2015)
